From article doi:10.1101/2024.02.15.580468v1, “Morphing Cholinesterase Inhibitor Amiridine into Multipotent Drugs for the Treatment of Alzheimer’s Disease” (biorxiv, 2024)
Where two headings read alike, the source gives them in different places.

Legend:
[1] = in vitro; set-up: PAMPA blood-brain barrier permeability, effective permeability Pe; conditions: PAMPA-BBB Pe
Text: page 5 / Table S2. Cytotoxicity profiles of 5–7 on SH-SY5Y cell line and predictions to BBB penetration by PAMPA results. / Pe (10^-6 cm.s^-1)

[2] = target: T1, recombinant human GluN1/GluN2B NMDA receptor (GluN1-4a/GluN2B) (Homo sapiens, UniProt Q05586+Q13224); experiment: whole-cell patch clamp, HEK293; type: cell-based; conditions: -60 mV, 1 mM L-glutamate, 100 µM glycine, pH 7.3, steady state; voltage-dependent
T1 construct: gene GRIN1; GluN1-4a and GluN2B co-expressed with GFP in HEK293 cells
T1 sequence (Q13224 27-1484, other chains not shown): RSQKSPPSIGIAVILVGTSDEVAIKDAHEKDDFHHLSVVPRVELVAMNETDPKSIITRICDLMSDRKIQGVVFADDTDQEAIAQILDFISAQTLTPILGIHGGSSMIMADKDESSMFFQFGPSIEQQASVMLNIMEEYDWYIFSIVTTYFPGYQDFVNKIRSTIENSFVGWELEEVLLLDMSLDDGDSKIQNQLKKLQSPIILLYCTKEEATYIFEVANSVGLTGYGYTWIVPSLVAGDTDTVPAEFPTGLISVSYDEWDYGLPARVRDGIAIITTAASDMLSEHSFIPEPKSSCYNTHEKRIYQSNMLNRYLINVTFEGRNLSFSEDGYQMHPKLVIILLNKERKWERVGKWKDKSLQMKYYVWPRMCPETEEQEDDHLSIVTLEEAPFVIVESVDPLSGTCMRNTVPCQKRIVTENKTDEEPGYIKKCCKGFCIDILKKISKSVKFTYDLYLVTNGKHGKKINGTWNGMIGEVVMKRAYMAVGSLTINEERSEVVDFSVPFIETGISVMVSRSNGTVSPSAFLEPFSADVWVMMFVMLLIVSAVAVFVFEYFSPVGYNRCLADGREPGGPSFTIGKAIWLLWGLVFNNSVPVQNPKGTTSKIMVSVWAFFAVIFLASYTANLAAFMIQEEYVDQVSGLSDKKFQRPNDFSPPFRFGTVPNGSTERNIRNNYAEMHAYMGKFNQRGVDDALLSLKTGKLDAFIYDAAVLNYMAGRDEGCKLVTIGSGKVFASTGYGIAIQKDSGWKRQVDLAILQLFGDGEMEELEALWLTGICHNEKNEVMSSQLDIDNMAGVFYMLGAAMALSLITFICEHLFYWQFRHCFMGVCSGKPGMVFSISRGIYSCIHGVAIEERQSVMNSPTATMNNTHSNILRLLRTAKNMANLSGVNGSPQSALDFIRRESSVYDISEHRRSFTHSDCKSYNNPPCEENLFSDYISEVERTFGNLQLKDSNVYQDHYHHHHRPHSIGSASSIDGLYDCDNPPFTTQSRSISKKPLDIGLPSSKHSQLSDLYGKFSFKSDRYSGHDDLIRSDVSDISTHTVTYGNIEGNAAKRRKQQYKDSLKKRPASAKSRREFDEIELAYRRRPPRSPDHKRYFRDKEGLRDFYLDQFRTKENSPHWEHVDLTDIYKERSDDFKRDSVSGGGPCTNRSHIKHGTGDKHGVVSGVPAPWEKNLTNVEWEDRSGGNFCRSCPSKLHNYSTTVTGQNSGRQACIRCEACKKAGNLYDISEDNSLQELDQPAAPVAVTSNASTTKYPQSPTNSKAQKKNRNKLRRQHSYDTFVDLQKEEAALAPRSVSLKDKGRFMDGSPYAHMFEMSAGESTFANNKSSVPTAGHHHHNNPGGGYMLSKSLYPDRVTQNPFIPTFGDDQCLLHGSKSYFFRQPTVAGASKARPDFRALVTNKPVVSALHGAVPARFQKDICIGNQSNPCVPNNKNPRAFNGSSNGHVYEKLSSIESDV
Text: whole-cell patch clamp, HEK293 on recombinant human GluN1/GluN2B NMDA receptor (GluN1-4a/GluN2B)

[3] = in vitro; set-up: MTT viability assay, undifferentiated SH-SY5Y cells; conditions: human, undifferentiated sh-sy5y cells, read-out: SH-SY5Y IC50
Experimental: (§1) The cytotoxic profile of 5–7 was carried through the use of the MTT (3-(4,5-dimethylthiazol-2-yl)-2,5-diphenyltetrazolium bromide) assay on human neuroblastoma (SH-SY5Y) and hepatocellular carcinoma (HepG2) cell lines, following established protocols. The cytotoxicity was assessed on SH-SY5Y cells in undifferentiated and in differentiated form. The data obtained from the measurements on the undifferentiated SH-SY5Y and HepG2 cells are summarized in Table 1 for 5c-d, 7c and 7g, as well as for the reference compounds amiridine hydrochloride and THA. Additional data can be found in Supplementary Information (Table S2 and Fig. S1). The both cell lines were cultured according to ECACC recommended conditions and seeded into 96-well plates in 100 µL and density of 8000 per well. For evaluation of cytotoxicity of the differentiated form the SH-SY5Y cells also underwent 9-day differentiation protocol into mature neurons according to Riegerová et al .. The tested compounds were dissolved in DMSO (Sigma Aldrich) or in phosphate buffer saline (PBS, Sigma Aldrich) and subsequently in the growth medium - high glucose Dulbecco’s Modified Eagle’s medium (DMEM; Sigma-Aldrich, D6429). […] Then, the differentiated SH-SY5Y cells were treated with concentrations corresponding to IC50 values obtained from the cytotoxicity measurement using undifferentiated SH-SY5Y cells. Cells were exposed to a tested compound for 24 h. Then the medium was replaced by a medium containing 10 μM of MTT and cells were allowed to produce formazan for another approximately 3 h under surveillance. Thereafter, medium was aspirated and purple crystals of MTT formazan were dissolved in 100 μL DMSO under shaking. Cell viability was assessed spectrophotometrically by the amount of formazan produced. Absorbance was measured at 570 nm with 650 nm reference wavelength on Spark (Tecan Group Ltd, Switzerland). The IC50 value was then calculated from the control-subtracted triplicates using non-linear regression (four parameters) of GraphPad Prism 9 software. Final IC50 and SEM values were obtained as a mean of three independent measurements.

[4] = target: T2, hAChE (human recombinant acetylcholinesterase) (Homo sapiens, UniProt P22303); experiment: biochemical; set-up: modified Ellman assay, cholinesterase activity, absorbance at 412 nm
T2 construct: gene ACHE; recombinant enzyme, purchased from Sigma-Aldrich
T2 sequence (P22303 32-614): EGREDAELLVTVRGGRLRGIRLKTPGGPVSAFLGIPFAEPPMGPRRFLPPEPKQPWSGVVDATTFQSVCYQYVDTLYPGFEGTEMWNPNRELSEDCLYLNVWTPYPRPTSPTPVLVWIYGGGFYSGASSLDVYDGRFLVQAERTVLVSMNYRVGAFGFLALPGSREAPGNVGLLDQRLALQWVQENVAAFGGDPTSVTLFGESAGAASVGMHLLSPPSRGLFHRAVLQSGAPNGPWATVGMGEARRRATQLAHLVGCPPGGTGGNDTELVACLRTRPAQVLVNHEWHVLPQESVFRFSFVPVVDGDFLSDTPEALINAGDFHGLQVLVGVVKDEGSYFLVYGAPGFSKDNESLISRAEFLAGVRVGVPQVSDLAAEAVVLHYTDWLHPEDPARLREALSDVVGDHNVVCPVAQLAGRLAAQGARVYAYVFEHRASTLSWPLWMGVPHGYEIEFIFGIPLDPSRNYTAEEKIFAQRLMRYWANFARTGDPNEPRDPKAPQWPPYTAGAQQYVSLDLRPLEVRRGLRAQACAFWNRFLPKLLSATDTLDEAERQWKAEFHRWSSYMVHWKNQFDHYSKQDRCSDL
Experimental: (§2) The inhibitory activities of 5–7 and all the reference compounds were determined using modified Ellman’s method against human recombinant AChE (hAChE, E.C. 3.1.1.7, purchased from Sigma-Aldrich, Prague, Czech Republic) and human plasmatic BChE (hBChE, E.C. 3.1.1.8, purchased from Sigma-Aldrich, Prague, Czech Republic). The results are expressed as IC50 (the concentration of the compound that is required to reduce 50% of cholinesterase activity). Other used compounds – phosphate buffer solution (PBS, pH = 7.4), 5,5’-dithio-bis(2-nitrobenzoic) acid (Ellman’s reagent, DTNB), acetylthiocholine (ATCh) and butyrylthiocholine (BTCh) were also commercially available and were purchased from Sigma-Aldrich (Prague, Czech Republic). During the measurement, 96-well microplates from polystyrene (ThermoFisher Scientific, Waltham, MA, USA) were used. The solutions of corresponding enzyme in PBS were prepared up to final activity 0.002 U/µL. The assay medium (100 µL) consisted of cholinesterase (10 µL), DTNB (20 µL of 0.01 M solution) and PBS (40 µL of 0.1 M solution). The solutions of the tested compounds (10 µL of different concentrations) were pre- incubated for 5 minutes in the assay medium and then solution of substrate (20 µL of 0.01 M ATCh or BTCh iodide solution) was added to initiate the reaction. The increase of absorbance was measured at 412 nm using Multimode microplate reader Synergy 2 (BioTek Inc., Winooski, VT, USA). For the calculation of the resulting measured activity (the percentage of inhibition I) following formula was used: [drawing 1] where ΔAi indicates absorbance change provided by adequate enzyme exposed to corresponding inhibitor and ΔA0 indicates absorbance change when a solution of PBS was added instead of a solution of inhibitor. Software Microsoft Excel (Redmont, WA, USA) and GraphPad Prism version 5.02 for Windows (GraphPad Software, San Diego, CA, USA) were used for the statistical data evaluation. ChEs are enzymes responsible for the hydrolysis and metabolism of various endogenous and exogenous substrates, that are broadly studied in association with disease conditions like myasthenia gravis or AD. The primary attention in the development of AD drugs has been paid to AChE inhibitors. Nevertheless, there is growing interest in nonselective or BChE-selective inhibitors due to the compensatory role of BChE when AChE levels are depleted during the progression of AD [23]. Selective BChE inhibitors may be beneficial for patients in moderate-to-severe stages of AD [23, 24]. […] Accordingly, we assessed the inhibition activities of these novel compounds against human recombinant AChE (hAChE) and human serum BChE (hBChE) following a modified spectrophotometric protocol developed by Ellman et al.. […] Complete data are available in the Supplementary Information (Table S1), including the inhibition percentages for all derivatives. Amiridine hydrochloride (amiridine.HCl) and tacrine (THA) were used as reference compounds. […] Only a superficial structure-activity relationship for AChE inhibition can be drawn from the obtained data. […] The presence of any substituent on the benzothiazole core enhanced anti-AChE activity, with the best-tolerated position for the substituent being 6 for derivatives with halogen atoms (7b-d with bromine or 7g-h with [compound left out]. h

[5] = target: T3, hBChE (human serum / plasmatic butyrylcholinesterase) (Homo sapiens, UniProt P06276); experiment: biochemical; set-up: modified Ellman assay, cholinesterase activity, absorbance at 412 nm
T3 construct: gene BCHE; native enzyme from human plasma/serum, purchased from Sigma-Aldrich
T3 sequence (P06276 29-602): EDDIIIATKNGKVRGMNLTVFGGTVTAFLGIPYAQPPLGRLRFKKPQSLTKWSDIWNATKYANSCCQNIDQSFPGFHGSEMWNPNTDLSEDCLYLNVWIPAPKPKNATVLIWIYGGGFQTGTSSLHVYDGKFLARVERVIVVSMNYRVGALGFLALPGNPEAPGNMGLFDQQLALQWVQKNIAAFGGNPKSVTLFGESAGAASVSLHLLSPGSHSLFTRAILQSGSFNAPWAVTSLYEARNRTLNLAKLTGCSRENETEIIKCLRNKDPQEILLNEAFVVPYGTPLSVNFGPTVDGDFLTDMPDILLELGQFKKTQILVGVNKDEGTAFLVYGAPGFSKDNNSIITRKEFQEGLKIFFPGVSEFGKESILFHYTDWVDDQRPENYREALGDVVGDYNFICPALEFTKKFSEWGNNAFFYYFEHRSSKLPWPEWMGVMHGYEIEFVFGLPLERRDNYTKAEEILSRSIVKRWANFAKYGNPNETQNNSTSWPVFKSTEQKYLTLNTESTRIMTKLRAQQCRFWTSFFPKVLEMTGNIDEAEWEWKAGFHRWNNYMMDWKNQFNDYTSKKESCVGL
Experimental: as §2

[6] = in vitro; set-up: MTT viability assay, HepG2 cells; conditions: human, hepg2 cells; read-out: HepG2 IC50
Experimental: as §1

Q: With `O=C(CNc1nc2ccc(OC(F)(F)F)cc2s1)Nc1c2c(nc3c1CCC3)CCCC2` [7m, N-{1H,2H,3H,5H,6H,7H,8H-cyclopenta[b]quinolin-9-yl}-2-{[6-(trifluoromethoxy)-1,3-benzothiazol-2-yl]amino}acetamide] as the compound, how does the Papp [1] read?
A: 2.54 ± 0.42 ×10⁻⁶ cm/s

Q: And the “RI (% inhibition at 30 μM)” value [2]?
A: 63.0 ± 2.6%

Q: What about the CC50 at 24 h [3] of the same compound?
A: 29.5 ± 2.3 µM

Q: What about the inhibition at 1 µM [4] of the same compound?
A: 13.3 ± 0.71%

Q: What about the inhibition at 1 µM [5] of the same compound?
A: 1.5 ± 0.64%

Q: And the CC50 at 24 h [6]?
A: ≥ 200 µM
